Data from the NIST ThermoML archive (doi:10.1016/j.fluid.2010.02.029).
Numbers after ± are expanded uncertainties. Blank lines part the entries; values can stand above or below the compound they belong to.

Legend:
[1] = xn = mol fraction of the nth substance listed; settings: 101 kPa, radial heat flow
[2] = 101.33 kPa, Crystal, radial heat flow

thermal conductivity ([1]; 382.65 K, Crystal, x2 = 0.527): 13.25 ± 1.9 W/m/K
thermal conductivity ([1]; 382.65 K, Liquid, x2 = 0.527): 10.6 ± 1.5 W/m/K
Structure (SMILES): [In] [indium] + [Bi]

thermal conductivity ([2]; 382.65 K): 8.35 ± 1.2 W/m/K
thermal conductivity ([2]; 418.7 K): 8.12 ± 1.1 W/m/K
Structure (SMILES): [Bi] [bismuth]

Structure (SMILES): [Cd] [cadmium] + [Bi]
thermal conductivity ([1]; 418.7 K, Crystal, x2 = 0.5504): 12.46 ± 1.7 W/m/K
thermal conductivity ([1]; 418.7 K, Liquid, x2 = 0.5504): 10.06 ± 1.4 W/m/K
